Test results from EP2671872A1, “Fluorinated pyridylacetylene derivatives as tracers” (Eidgenössische Technische Hochschule Zürich (ETH), priority 2012, dated 2013).
Read-outs that look alike come from different tables or passages of the source.

Tests used:
[1] = defluorination by rat liver microsomes; assay type: in vitro ADME
[2] = defluorination in vivo in rats
[3] = defluorination by human liver microsomes; assay type: in vitro ADME
[4] = biological target: T1, mGluR5 (Rattus norvegicus, UniProt P31424); experiment: PET scan of rat brain, kinetic behavior (ratio of specifically bound to free ligand); assay type: in vivo, Wistar rat; parameters: from tissue; host or cells: brain of living male Wistar rat (in vivo PET); details: tail vein injection
Protocol: A male Wistar rat (423 g) was injected 23.1 MBq [^18F]PSS232 into a tail vein and PET was acquired from 0 to 90 min post injection. […] Only brain is shown. SUV denotes standardized uptake value.
PET scans analogous to those of Example 3 were recorded after administration of [^18F]PSS232 (Fig. 7, red curves, circles and diamonds), [^11C]ABP688 (Fig. 7, black curves, squares and triangles) and [^18F]FDEGPECO (Fig. 7, blue curves, crosses and crossed bars).
Fig. 9 illustrates the favorable kinetic behavior of PSS232. The ratio of specifically bound PSS232 in caudate putamen (striatum) to free ligand PSS232 (radioactivity in cerebellum is considered to originate from free ligand) becomes constant at about 40 min after injection, thus allowing the estimation of the binding potential (BP). This is an advantage over [^11C]ABP688 where the equilibrium is not reached within 60 min and the short physical half-life of ^11C (20 min) limits the scan duration.

[5] = defluorination by human S9 fraction of liver homogenate; assay type: in vitro ADME
[6] = biological target: T2, rat mGluR5 (Rattus norvegicus, UniProt P31424); experiment: displacement assay with rat brain membranes and [^3H]ABP688; assay type: binding; details: radioligand of the displacement assay, used at 1.6 nM, rat brain membranes
T2 construct: displacement assay with rat brain membranes and 1.6 nM [^3H]ABP688; from tissue; host or cells: rat brain membranes

[7] = monkeys; background; cited from earlier work
[8] = humans; background, relative to rodents and monkeys; cited from earlier work
[9] = rodents; background; cited from earlier work
[10] = biological target: T1, mGluR5; details: background, literature; cited from earlier work
[11] = rats; background, literature; cited from earlier work
[12] = biological target: T1, mGluR5; experiment: in vitro autoradiography of rat brain slices; assay type: binding; parameters: from tissue; host or cells: brain of living animal (in vivo PET, tail vein injection); details: about 1 nM tracer, 20 µm slices; compared with 100 nM ABP688 (mGluR5 ligand) or JNJ16259685 (mGluR1 ligand)
Protocol: In Fig. 4 two rat brain slices (20 µm) each were incubated with about 1 nM [^18F]PSS232 in the absence of any unlabeled compound (top) or with 100 nM of the specific mGluR5 ligand ABP688 (middle) or of mGluR1 ligand JNJ16259685 (bottom). […] It should be noted that mGluR1 is the receptor with most similar amino acid sequence to mGluR5.

[13] = biological target: T1, mGluR5; experiment: ex vivo brain distribution with MTEP blockade (gamma counter); assay type: in vivo, Rats; parameters: from tissue; host or cells: rat brain regions after in vivo injection; details: 45 min after injection
Protocol: Rats were pre-injected (tail vein) with 10 mg/kg MTEP (a specific mGluR5 antagonist) before [^18F]PSS232 injection (= blockade, see green, right bars in Fig. 10) or they were pre-injected with vehicle (= baseline, see blue, left, bars in Fig. 10).

[14] = biological target: T1, mGluR5; experiment: ex vivo brain distribution after MMPEP pre-injection at various doses (receptor occupancy); details: estimated from fit of MMPEP dose curve; 45 min after injection

T1 sequence (P31424 21-1203): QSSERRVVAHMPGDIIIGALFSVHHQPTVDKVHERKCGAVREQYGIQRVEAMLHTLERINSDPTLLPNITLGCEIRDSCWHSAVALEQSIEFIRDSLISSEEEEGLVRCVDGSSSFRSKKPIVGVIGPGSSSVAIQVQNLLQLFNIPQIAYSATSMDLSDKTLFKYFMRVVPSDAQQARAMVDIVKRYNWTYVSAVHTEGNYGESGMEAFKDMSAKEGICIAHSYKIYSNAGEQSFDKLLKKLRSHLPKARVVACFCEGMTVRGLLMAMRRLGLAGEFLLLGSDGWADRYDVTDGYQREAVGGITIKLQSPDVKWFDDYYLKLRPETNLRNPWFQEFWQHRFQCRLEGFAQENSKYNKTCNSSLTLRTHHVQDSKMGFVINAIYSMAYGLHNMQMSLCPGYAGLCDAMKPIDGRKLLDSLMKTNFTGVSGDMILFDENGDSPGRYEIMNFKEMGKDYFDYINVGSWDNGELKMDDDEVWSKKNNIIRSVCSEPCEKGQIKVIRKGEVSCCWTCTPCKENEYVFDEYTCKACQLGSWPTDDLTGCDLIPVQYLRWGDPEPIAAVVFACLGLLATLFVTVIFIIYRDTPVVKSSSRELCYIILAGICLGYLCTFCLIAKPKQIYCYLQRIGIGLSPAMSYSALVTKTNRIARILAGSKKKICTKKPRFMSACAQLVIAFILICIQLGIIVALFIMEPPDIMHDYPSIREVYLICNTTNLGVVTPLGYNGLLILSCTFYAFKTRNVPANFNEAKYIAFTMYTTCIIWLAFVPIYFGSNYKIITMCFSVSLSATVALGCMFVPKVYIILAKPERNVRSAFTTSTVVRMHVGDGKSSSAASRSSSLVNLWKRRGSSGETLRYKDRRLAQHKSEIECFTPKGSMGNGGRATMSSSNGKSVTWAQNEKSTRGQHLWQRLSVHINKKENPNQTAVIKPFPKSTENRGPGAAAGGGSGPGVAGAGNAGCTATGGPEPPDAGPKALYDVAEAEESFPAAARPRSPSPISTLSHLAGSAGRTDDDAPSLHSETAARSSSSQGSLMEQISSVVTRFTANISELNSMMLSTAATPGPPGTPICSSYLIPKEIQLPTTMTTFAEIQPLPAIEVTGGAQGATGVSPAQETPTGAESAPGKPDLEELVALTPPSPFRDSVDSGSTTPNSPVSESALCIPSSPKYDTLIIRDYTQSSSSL
T2 sequence (P31424 21-1203): as above

For `FCCOCCCO/N=C1/C=C(C#Cc2ccccn2)CCC1` [PSS232, (E)-3-(pyridin-2-ylethynyl)-cyclohex-2-enone O-(3-(2-fluoroethoxy)propyl) oxime], the defluorination [1] was “not significantly defluorinated”, the defluorination in vivo [2] was “does not show significant defluorination” and the defluorination [3] was “not significantly defluorinated”. For the same molecule, the “time after injection at which ratio of specifically bound (caudate putamen/striatum) to free ligand (cerebellum) becomes constant (equilibrium)” value [4] was “about 40 min” and the defluorination [5] was “not significantly defluorinated”.

Molecule `CON=C1C=C(C#Cc2cccc(C)n2)CCC1` [[^3H]ABP688] has a Kd [6] of 1.7 nM.

In the case of `Cc1cccc(C#CC2=C/C(=N/O[11CH3])CCC2)n1` [[^11C]ABP688, (E)-3-((6-methylpyridin-2-yl)ethynyl)cyclohex-e-enone-O-^11C-methyl oxime], the “time after injection at which ratio of specifically bound (caudate putamen/striatum) to free ligand (cerebellum) becomes constant (equilibrium)” value [4] is reported as greater than 60 min.

In the case of `N#Cc1cc(F)cc(C#Cc2csc(C[18F])n2)c1` [[^18F]-SP203], the defluorination [7] is listed as “significant defluorination”, the defluorination [8] is listed as “to a lesser extent” and the defluorination [9] is listed as “significant defluorination”.

For `[18F]CCOCCO/N=C1/C=C(C#Cc2ccccn2)CCC1` [[^18F]FDEGPECO, (E)-3-(Pyridin-2-ylethynyl)-cyclohex-2-enone-O-2-(2-^18F-fluoroethoxy)ethyl oxime], the “mean residence time at the target site” value [10] is listed as “relatively short”.

For `[18F]CCCOCCO/N=C1/C=C(C#Cc2ccccn2)CCC1` [[^18F]PSS223, (E)-3-(pyridin-2-ylethynyl)cyclohex-2-enone O-(2-(3-^18F-fluoropropoxy)ethyl) oxime], the defluorination in vivo [11] is given as “rapid defluorination”.

With `FCCOCCCO/N=C1/C=C(C#Cc2ccccn2)CCC1` [[^18F]PSS232, (E)-3-(pyridin-2-ylethynyl)-cyclohex-2-enone O-(3-(2-fluoroethoxy)propyl) oxime] the “accumulation in mGluR5-rich domains of rat brain slices” value [12] was “high, mGluR5-selective accumulation”, the “average specific binding in striatum” value ([13]; baseline (vehicle) vs blockade with 10 mg/kg MTEP) was 86.6% and the “maximal specific binding in striatum” value [14] was 78.5%.

For MTEP, the “radioactivity of brain regions after MTEP pre-injection” value ([13]; 10 mg/kg MTEP tail vein before [^18F]PSS232) was “all brain regions have similar radioactivity as in cerebellum”.
